Among the data in ChEMBL document CHEMBL5465560, “Selectivity Literature for EUbOPEN Chemogenomic Library” (2024) are % of control and % of engagement values, retold here.

In experiment [1] the test system is Leucine-rich repeat serine/threonine-protein kinase 2 (Homo sapiens), Q5S007 [G2019S]. The experiment in a line: (§1) Selectivity interaction (KinomeScan (DiscoverX)) EUB0000595a LRRK2. The conditions noted are these: at 10 µM.
The target of experiment [2] is Leucine-rich repeat serine/threonine-protein kinase 2 (Homo sapiens, UniProt Q5S007). The description is as §1. The settings on record: at 10 µM.
Leucine-rich repeat serine/threonine-protein kinase 2, sequence (Q5S007 whole entry): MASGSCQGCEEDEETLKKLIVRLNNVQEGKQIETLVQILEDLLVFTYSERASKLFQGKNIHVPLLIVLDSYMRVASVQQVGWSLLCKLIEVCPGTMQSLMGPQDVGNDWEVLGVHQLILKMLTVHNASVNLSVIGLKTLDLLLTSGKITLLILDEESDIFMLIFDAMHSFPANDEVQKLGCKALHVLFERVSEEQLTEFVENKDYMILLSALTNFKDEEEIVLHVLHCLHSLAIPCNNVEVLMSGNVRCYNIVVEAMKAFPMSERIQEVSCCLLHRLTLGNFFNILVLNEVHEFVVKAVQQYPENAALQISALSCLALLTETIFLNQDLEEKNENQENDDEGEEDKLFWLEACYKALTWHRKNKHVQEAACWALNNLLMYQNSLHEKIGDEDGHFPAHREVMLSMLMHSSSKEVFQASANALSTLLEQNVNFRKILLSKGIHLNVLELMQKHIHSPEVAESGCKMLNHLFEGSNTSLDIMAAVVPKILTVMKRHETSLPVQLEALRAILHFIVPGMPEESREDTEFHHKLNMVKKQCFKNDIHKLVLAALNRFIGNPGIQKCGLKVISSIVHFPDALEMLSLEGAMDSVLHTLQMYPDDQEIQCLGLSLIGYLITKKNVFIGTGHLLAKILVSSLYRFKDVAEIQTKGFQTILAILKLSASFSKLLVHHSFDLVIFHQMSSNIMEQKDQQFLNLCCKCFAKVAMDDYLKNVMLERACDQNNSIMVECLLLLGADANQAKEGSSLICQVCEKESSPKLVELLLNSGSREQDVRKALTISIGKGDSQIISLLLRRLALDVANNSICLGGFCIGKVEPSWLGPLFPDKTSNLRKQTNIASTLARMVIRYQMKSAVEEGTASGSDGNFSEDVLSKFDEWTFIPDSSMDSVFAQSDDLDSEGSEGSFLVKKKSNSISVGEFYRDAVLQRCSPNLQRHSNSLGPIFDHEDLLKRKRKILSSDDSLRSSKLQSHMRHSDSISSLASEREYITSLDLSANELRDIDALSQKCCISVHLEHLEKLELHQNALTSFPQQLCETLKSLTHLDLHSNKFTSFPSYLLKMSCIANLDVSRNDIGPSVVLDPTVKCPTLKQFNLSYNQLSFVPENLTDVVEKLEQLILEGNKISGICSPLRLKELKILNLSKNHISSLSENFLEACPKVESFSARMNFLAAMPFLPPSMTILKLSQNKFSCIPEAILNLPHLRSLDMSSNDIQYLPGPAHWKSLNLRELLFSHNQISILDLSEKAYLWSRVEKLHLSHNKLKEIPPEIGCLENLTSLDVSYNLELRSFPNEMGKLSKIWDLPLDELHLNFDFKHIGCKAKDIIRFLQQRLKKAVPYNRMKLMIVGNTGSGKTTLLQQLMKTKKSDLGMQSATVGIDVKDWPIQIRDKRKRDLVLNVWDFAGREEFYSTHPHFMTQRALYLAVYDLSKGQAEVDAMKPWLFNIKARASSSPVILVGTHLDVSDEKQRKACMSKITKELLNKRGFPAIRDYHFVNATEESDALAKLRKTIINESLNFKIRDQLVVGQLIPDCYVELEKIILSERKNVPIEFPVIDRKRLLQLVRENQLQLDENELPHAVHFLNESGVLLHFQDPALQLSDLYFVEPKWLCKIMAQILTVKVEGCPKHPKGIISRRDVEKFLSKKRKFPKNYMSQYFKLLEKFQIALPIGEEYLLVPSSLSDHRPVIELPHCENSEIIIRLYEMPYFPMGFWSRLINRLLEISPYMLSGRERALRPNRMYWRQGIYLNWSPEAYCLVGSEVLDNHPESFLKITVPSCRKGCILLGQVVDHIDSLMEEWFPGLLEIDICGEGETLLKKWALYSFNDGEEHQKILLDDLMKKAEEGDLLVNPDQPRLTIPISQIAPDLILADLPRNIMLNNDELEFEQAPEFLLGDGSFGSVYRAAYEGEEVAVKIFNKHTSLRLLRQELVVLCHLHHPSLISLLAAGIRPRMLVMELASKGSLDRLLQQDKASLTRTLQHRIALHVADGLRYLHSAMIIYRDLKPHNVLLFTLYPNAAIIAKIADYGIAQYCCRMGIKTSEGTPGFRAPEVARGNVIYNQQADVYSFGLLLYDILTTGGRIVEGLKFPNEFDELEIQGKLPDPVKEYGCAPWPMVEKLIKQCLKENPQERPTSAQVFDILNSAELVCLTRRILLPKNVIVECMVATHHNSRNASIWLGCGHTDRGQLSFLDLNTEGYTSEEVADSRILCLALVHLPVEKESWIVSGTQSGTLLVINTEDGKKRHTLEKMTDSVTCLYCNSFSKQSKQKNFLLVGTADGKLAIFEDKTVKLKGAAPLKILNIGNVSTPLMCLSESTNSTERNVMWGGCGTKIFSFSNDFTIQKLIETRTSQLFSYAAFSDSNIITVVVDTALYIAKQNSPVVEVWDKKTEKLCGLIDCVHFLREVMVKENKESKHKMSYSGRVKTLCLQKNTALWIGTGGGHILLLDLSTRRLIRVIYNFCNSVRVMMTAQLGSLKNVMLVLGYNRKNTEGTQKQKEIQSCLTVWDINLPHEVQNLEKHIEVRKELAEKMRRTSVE
Experiment [3] addresses T1, Tyrosine-protein kinase receptor TYRO3 (Homo sapiens) (UniProt Q06418).
T1 sequence (whole entry): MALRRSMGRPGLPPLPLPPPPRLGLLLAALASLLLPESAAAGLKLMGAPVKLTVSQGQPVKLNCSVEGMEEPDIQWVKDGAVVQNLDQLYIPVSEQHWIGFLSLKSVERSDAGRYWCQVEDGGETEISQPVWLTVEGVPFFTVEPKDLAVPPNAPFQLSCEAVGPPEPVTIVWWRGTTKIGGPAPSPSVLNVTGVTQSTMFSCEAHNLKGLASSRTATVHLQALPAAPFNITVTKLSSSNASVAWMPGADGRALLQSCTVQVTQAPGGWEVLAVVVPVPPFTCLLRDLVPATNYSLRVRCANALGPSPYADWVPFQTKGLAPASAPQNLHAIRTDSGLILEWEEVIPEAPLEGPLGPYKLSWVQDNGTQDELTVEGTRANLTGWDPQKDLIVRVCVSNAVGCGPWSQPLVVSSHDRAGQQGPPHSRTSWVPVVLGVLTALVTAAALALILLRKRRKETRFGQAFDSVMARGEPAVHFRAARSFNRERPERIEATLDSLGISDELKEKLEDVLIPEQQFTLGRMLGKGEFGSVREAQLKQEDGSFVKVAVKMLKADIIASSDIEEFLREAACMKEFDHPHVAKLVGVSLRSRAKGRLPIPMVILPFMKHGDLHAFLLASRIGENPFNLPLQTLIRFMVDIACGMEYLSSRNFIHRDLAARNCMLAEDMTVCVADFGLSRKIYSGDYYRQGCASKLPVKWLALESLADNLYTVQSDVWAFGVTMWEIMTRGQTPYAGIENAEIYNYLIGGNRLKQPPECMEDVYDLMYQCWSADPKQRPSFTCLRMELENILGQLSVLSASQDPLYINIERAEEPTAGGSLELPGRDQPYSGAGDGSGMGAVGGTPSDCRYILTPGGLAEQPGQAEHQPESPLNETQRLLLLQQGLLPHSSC
The experiment in a line: Selectivity interaction (KinomeScan (DiscoverX)) EUB0000607a TYRO3. The settings on record: at 10 µM.

The target of experiment [4] is Ephrin type-A receptor 2 (Homo sapiens) (UniProt P29317). Nature of the experiment: Selectivity interaction (KinomeScan (DiscoverX)) EUB0001049a EPHA2. The settings on record: at 1 µM.
Ephrin type-A receptor 2 (Homo sapiens), sequence (P29317 whole entry): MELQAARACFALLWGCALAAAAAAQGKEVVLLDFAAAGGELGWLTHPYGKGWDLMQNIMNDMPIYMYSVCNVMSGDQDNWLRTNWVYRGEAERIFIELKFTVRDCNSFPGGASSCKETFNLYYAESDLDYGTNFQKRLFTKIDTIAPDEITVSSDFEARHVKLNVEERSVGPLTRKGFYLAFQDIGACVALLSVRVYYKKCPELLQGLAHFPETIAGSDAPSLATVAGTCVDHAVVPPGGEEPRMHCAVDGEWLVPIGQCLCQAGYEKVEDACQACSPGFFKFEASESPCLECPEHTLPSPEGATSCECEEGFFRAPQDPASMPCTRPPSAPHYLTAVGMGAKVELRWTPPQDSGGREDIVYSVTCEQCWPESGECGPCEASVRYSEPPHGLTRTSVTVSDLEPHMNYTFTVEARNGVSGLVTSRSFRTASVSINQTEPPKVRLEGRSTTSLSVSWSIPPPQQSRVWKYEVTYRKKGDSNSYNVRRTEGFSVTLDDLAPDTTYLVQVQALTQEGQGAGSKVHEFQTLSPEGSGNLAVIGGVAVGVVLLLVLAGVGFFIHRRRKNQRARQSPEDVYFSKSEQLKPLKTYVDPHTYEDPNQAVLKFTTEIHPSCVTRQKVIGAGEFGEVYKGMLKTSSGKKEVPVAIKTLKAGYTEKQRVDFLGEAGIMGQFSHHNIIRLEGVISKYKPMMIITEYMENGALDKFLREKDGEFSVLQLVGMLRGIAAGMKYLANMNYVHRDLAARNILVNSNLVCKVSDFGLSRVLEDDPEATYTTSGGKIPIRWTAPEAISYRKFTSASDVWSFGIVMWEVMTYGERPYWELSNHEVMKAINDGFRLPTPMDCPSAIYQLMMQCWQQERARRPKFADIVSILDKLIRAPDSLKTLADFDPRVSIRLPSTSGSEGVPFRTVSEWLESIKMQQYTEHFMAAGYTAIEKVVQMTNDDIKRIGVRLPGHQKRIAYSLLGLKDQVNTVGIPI
Experiment [5] deals with T2, Ephrin type-B receptor 2 (Homo sapiens) (UniProt P29323).
T2 sequence (whole entry): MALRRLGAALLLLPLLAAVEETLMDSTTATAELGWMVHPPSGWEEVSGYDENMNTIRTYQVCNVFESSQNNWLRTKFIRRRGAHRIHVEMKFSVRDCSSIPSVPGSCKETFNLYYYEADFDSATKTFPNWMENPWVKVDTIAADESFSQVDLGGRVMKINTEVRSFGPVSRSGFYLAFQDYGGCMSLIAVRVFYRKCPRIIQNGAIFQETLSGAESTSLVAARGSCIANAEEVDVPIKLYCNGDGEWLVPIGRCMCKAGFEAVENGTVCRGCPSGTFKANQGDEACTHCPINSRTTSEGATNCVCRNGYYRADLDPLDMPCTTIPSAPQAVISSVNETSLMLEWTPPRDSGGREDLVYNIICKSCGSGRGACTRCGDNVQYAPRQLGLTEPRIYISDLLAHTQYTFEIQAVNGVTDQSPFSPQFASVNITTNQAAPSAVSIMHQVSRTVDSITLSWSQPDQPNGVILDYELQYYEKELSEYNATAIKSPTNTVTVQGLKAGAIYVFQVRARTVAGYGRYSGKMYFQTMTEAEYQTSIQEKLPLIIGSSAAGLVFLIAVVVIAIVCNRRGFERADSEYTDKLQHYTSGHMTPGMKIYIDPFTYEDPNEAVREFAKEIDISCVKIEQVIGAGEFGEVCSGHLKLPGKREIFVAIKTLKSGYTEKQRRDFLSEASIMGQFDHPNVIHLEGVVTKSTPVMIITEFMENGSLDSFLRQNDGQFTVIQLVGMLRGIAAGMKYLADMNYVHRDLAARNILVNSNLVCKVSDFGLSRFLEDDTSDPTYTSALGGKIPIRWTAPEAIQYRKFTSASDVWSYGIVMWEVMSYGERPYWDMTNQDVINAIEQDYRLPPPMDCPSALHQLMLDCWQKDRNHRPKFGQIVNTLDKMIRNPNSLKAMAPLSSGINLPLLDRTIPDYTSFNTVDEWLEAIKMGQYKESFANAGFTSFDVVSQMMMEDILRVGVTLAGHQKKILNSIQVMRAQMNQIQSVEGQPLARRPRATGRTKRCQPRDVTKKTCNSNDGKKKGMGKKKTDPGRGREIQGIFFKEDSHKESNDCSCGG
The experiment in a line: Selectivity interaction (KinomeScan (DiscoverX)) EUB0000618a EPHB2. The settings on record: at 10 µM.

For experiment [6], the target named is T3, Calcium/calmodulin-dependent protein kinase type IV (Homo sapiens) (UniProt Q16566).
T3 sequence (whole entry): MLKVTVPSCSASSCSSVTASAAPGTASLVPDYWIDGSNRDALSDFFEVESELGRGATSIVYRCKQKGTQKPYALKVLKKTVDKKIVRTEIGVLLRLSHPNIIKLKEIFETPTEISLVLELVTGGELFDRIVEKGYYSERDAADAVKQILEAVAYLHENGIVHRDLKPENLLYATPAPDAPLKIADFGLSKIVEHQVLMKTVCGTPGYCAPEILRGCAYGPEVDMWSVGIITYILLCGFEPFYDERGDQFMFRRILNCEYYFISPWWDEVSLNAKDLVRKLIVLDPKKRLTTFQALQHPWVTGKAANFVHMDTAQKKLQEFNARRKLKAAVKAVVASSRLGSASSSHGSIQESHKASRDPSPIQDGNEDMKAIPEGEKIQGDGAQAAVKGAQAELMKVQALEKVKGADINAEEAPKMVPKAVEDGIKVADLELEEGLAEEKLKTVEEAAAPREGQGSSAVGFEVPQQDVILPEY
Nature of the experiment: Selectivity interaction (KinomeScan (DiscoverX)) EUB0000092b CAMK4. The conditions noted are these: at 10 µM.

Experiment [7] addresses Dual specificity mitogen-activated protein kinase kinase 1 (Homo sapiens, UniProt Q02750). Nature of the experiment: Selectivity interaction (KinomeScan (DiscoverX)) EUB0001079a MAP2K1. The conditions noted are these: at 1 µM.
For experiment [8], the target named is RAC-beta serine/threonine-protein kinase (Homo sapiens) (UniProt P31751). Nature of the experiment: Selectivity interaction (Millipore kinase profiler) EUB0000124b AKT2. The conditions noted are these: at 10 µM.
RAC-beta serine/threonine-protein kinase (Homo sapiens), sequence (P31751 whole entry): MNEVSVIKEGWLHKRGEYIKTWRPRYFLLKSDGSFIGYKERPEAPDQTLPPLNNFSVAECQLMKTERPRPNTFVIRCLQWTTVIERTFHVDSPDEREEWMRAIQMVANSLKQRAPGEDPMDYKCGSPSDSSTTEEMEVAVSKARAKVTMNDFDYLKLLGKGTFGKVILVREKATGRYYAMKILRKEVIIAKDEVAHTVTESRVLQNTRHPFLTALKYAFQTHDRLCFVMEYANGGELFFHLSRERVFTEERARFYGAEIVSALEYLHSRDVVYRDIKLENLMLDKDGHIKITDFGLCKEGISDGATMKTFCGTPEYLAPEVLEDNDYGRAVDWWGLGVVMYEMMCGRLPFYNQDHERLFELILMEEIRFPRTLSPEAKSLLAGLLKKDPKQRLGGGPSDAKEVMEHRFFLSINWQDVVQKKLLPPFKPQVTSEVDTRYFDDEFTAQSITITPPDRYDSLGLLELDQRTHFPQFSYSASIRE
The target of experiment [9] is DNA-dependent protein kinase catalytic subunit (Homo sapiens) (UniProt P78527). The experiment in a line: Selectivity interaction (Kinase panel (KiNativ target engagement assay in Jurkat cells)) EUB0001635a PRKDC. Format: cell-based. The settings on record: Selectivity number of off-targets 0.0, Selectivity number of targets 233.0, Source Knowledge https://www.sciencedirect.com/science/article/pii/S2451945619300674?via%3Dihub, at 1 µM.

Leucine-rich repeat serine/threonine-protein kinase 2 (Homo sapiens), Q5S007 [G2019S], sequence (Q5S007 whole entry G2019S): as the sequence (Q5S007 whole entry) above, with G2019S counted along it
Dual specificity mitogen-activated protein kinase kinase 1, sequence (Q02750 whole entry): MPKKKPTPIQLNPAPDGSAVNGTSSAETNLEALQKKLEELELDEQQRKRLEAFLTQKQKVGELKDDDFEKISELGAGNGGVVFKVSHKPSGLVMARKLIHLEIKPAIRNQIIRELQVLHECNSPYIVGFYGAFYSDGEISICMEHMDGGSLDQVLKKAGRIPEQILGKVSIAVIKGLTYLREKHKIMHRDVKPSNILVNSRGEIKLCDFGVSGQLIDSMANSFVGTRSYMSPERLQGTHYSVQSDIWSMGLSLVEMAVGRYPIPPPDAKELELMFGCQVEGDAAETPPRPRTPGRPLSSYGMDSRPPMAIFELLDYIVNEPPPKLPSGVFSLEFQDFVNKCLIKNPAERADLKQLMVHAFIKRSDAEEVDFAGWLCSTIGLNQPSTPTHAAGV

For `COCC(=O)NC/C=C/c1ccc2ncnc(Nc3ccc(Oc4ccc(C)nc4)c(C)c3)c2c1` [CP-724714], the results for the % of control in experiment [1] and in experiment [2] were 98% and 100%, respectively.
In turn, `CNC(=O)Nc1ccc(-c2nc(N3CC4CCC(C3)O4)c3cnn(C4CCC5(CC4)OCCO5)c3n2)cc1` came in with a % of control in [3] of 100%.
On to `COc1cc(Nc2nc(C)cc(-c3cnn4nc(OC)ccc34)n2)cc(C(F)(F)F)c1`, for which the % of control in [4] came to 87%.
The compound `O[C@H]1CC[C@H](Nc2ncc3nc(Nc4c(F)cc(F)cc4F)n([C@H]4CCOC4)c3n2)CC1` showed a % of control in experiment [5] of 72%.
Consider `CCC(=O)N1CCN(c2ccc(-n3c(=O)ccc4cnc5ccc(-c6cnc7ccccc7c6)cc5c43)cc2C(F)(F)F)CC1`, for which the % of control in experiment [6] came out at 90%.
In experiment [7], `Nc1cnc(N2CCc3cc(S(=O)(=O)Nc4c(F)cc(Cl)cc4F)cc(N4CCCC4=O)c32)nc1` [TP-020n] yielded a % of control of 100%.
Compound `CC(=O)Nc1cccc(-n2c(=O)n(C3CC3)c(=O)c3c(Nc4ccc(I)cc4F)n(C)c(=O)c(C)c32)c1` returned a % of control in experiment [8] of 103%.
Turning to `C=CC(=O)Nc1ccc(C(=O)Nc2[nH]nc3c2CN(C(=O)N[C@H](CN(C)C)c2ccccc2)C3(C)C)cc1`, the % of engagement in [9] is -14%.
